Results published in EP0501870A1, “New pharmaceutical compositions, particularly for the treatment of functional infections of the large intestines, and process for obtaining them” (SOCIETE CIVILE BIOPROJET, priority 1991, dated 1992).

Assays:
motricité colique = assay: Post-prandial colonic motor activity recorded by strain gauges; format: in vivo, chien; conditions: dog, mean and sd of 8 values
From the text: Chez le chien, en période post-prandiale, le mélange des deux isomères [R] 65 % [S]

[1] = biological target: T1, enképhalinase plasmatique (Homo sapiens, UniProt P08473); assay: Plasma enkephalinase activity over time after a single oral dose; format: in vivo, volontaire sain; conditions: healthy volunteer; for Activité enképhalinase plasmatique T3O' / Activité enképhalinase plasmatique T1h / Activité enképhalinase plasmatique T8h / Activité enképhalinase plasmatique TO: 30 mg oral single dose; for Activité enképhalinase plasmatique T3O': 30 min; for Activité enképhalinase plasmatique T3O' / Activité enképhalinase plasmatique T1h / Activité enképhalinase plasmatique T8h: * p < 0.05 vs TO; for Activité enképhalinase plasmatique T1h: 1 h; for Activité enképhalinase plasmatique T8h: 8 h; for Activité enképhalinase plasmatique TO: time zero (baseline)
T1 construct: from tissue; host or cells: plasma of healthy volunteers
T1 sequence (P08473 whole entry): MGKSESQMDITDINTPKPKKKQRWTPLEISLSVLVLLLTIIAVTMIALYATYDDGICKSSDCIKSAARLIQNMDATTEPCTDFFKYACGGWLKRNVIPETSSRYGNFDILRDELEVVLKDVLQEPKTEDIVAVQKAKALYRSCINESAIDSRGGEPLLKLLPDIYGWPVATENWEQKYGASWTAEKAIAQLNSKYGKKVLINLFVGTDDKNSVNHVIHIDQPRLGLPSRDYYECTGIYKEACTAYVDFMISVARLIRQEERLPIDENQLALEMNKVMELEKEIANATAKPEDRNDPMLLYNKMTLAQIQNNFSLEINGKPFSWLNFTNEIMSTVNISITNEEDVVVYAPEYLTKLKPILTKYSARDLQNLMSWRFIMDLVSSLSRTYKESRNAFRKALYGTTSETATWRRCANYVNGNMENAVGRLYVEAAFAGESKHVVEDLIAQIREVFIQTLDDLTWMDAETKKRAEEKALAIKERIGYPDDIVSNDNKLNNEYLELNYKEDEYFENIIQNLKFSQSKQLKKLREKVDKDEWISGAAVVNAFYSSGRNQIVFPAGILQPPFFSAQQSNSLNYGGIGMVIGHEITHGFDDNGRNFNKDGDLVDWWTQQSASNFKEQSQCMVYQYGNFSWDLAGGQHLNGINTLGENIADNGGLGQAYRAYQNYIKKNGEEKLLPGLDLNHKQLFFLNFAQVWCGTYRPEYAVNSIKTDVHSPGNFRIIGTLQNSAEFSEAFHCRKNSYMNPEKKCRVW
Method: Chez le volontaire sain, l'activité enzymatique plasmatique a été évaluée en fonction du temps pour suivre l'absorption et la durée de vie des inhibiteurs étudiés, après administration orale d'un dose unique de 30 mg.
Comparaison des inhibitions enképhalinasiques plasmatiques après administration des différents composés à la dose de 30 mg par voie orale.

enképhalinase [2] = conditions: type of constant (IC50/Ki) not given; read-out: activité inhibitrice de l'enképhalinase; cited from earlier work
enképhalinase, sequence (P08473 whole entry, species assumed): as the sequence (P08473 whole entry) above

A.C.E. = A.C.E. (Homo sapiens, UniProt P12821); conditions: cited from earlier work
A.C.E., sequence (P12821 30-1306, species assumed): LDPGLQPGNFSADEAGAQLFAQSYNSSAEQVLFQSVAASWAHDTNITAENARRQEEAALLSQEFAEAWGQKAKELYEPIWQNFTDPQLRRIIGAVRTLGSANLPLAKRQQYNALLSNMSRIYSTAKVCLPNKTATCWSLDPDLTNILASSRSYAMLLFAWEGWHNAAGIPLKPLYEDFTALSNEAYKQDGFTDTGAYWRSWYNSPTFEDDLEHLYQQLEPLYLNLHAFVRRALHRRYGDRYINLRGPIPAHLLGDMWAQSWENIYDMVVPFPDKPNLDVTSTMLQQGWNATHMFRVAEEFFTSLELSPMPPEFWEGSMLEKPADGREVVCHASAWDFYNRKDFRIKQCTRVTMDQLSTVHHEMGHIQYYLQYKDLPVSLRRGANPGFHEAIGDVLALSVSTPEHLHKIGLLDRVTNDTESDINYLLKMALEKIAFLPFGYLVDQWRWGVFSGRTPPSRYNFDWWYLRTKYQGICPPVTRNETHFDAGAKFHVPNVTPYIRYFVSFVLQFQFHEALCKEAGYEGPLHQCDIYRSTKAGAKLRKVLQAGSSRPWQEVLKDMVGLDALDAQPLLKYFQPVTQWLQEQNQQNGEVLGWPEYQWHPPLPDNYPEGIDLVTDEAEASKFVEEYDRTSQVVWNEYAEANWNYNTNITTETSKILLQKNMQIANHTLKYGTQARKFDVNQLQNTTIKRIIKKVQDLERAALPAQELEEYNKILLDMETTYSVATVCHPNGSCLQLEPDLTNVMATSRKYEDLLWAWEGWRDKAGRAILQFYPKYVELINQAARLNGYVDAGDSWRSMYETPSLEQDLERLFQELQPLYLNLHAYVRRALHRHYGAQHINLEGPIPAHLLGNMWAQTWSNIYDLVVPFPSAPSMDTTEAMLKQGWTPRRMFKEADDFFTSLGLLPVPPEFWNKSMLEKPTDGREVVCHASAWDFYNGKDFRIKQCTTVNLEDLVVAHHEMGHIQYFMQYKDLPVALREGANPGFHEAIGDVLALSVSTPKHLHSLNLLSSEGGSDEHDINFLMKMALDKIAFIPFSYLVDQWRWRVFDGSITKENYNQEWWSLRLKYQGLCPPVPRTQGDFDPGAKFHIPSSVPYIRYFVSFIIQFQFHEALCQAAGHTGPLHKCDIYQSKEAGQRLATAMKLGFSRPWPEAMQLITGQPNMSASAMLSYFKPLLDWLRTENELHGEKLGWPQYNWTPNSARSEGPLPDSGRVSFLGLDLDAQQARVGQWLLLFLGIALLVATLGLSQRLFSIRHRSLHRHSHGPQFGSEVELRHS

enképhalinase [3] = biological target: enképhalinase (Homo sapiens, UniProt P08473); conditions: compared with isomère [S], cited from earlier work
enképhalinase (Homo sapiens, UniProt P08473), sequence (P08473 whole entry, species assumed): as the sequence (P08473 whole entry) above

[4] = Multicentre clinical study in functional colopathy patients; format: in vivo
From the text: Une étude multicentrique chez 420 colopathes fonctionnels a été entreprise avec l'acétorphan [R,S], produit pour lequel les études de toxicité chronique chez l'animal rongeur (rat) et non rongeur (singe) autorisaient des études de longue durée (supérieure à 1 mois). […]
Le critère principal d'efficacité retenu était la douleur évaluée selon une échelle analogique. Les autres paramètres pris en considération étaient les troubles du transit, qu'il s'agisse de constipation (54,4 % des cas) ou de diarrhée (39 % des cas).

[5] = clinical trials in man; cited from earlier work
[6] = plasma enkephalinase inhibition, 30 mg oral

Compound: CC(=O)SC[C@H](Cc1ccccc1)C(=O)NCC(=O)OCc1ccccc1 [[R], [R] acétorphan]
- Index moteur (évalué par jauge de contrainte) Avant repas (-2-0 h) (motricité colique; 10 mg/kg per os): 5.7 ± 0.8
- Index moteur (évalué par jauge de contrainte) Après repas (2 - 10 h) (motricité colique; 10 mg/kg per os, * p < 0.01 vs control): 15.2 ± 2.4
- Activité enképhalinase plasmatique T3O' [1]: 40,0 pmol/ml/min
- Activité enképhalinase plasmatique T1h [1]: 32,4* pmol/ml/min
- Activité enképhalinase plasmatique T8h [1]: 46,1 pmol/ml/min
- Activité enképhalinase plasmatique TO [1]: 52,3 pmol/ml/min
- durée d'action [1, 6]: plus courte que le dérivé [S] et le mélange [R] + [S]
- effet maximum [Cmax] [1, 6]: plus faible
- IC50 (enképhalinase [2]): 1.7 nM
- activité inhibitrice de l'A.C.E. (A.C.E.): dénué d'effet sur l'A.C.E.
- durée d'action vis-à-vis de l'enképhalinase (enképhalinase [3]): environ trois fois moins longue que celle de l'isomère [S]
- effet maximal (enképhalinase [3]; enkephalinase inhibition): moins intense

Compound: CC(=O)SCC(Cc1ccccc1)C(=O)NCC(=O)OCc1ccccc1 (racemic) [acétorphan]
- % d'amélioration après acétorphan 100 mg X 3, Ballonnement ([4]; 1 mois (420 sujets)): 60%
- % d'amélioration après acétorphan 100 mg X 3, Douleur ([4]; 1 mois (420 sujets)): 70%
- % d'amélioration après acétorphan 100 mg X 3, Troubles du transit ([4]; 1 mois (420 sujets)): 50%
- % d'amélioration après acétorphan 100 mg X 3, Ballonnement ([4]; 2 mois (115 sujets)): 80%
- % d'amélioration après acétorphan 100 mg X 3, Douleur ([4]; 2 mois (115 sujets)): 84,3%
- % d'amélioration après acétorphan 100 mg X 3, Troubles du transit ([4]; 2 mois (115 sujets)): 81,5%
- % d'amélioration après acétorphan 100 mg X 3, Ballonnement ([4]; 3 mois (40 sujets)): 90%
- % d'amélioration après acétorphan 100 mg X 3, Douleur ([4]; 3 mois (40 sujets)): 87,5%
- % d'amélioration après acétorphan 100 mg X 3, Troubles du transit ([4]; 3 mois (40 sujets)): 94%
- sujets constipés au stade 3 ([4]; after one month of treatment): 0,9%
- sujets diarrhéiques présentant une diarrhée objective et importante (d'intensité 2 et 3) ([4]; after one month of treatment, 20 % before treatment): 2,4%
- sujets constipés souffrant de constipation importante (stades 2 et 3) ([4]; after one month of treatment, 32 % before treatment): 12,7%

Compound: CC(=O)SC[C@@H](Cc1ccccc1)C(=O)NCC(=O)OCc1ccccc1 [[S], [S] acétorphan]
- Index moteur (évalué par jauge de contrainte) Avant repas (-2-0 h) (motricité colique; 5 mg/kg per os): 6.3 ± 1
- Activité enképhalinase plasmatique T3O' [1]: 28,4* pmol/ml/min
- Activité enképhalinase plasmatique T1h [1]: 21,7* pmol/ml/min
- Activité enképhalinase plasmatique T8h [1]: 37* pmol/ml/min
- Activité enképhalinase plasmatique TO [1]: 53,3 pmol/ml/min
- IC50 (enképhalinase [2]): 2.2 nM
- activité inhibitrice de l'A.C.E. (A.C.E.): résidant essentiellement dans l'isomère [S]
- effet antihypertenseur [5]: effet antihypertenseur, démontré chez l'homme
